Laboratory results reported in US7214505B1, “Cell-based assay for the detection of toxic analytes” (priority 1999, dated 2007).

Columns and labels:
Vibrio fischeri [1] = test: Microtox test with bacteria immobilized on silica gel (bacteria/silica mixture); format: cell-based; conditions: FIGS. 3, 4 & 5; silica gel
Procedure: For initial testing of such a bacteria/silica mixture, rehydration of freeze-dried luminescent Vibrio fischeri Microtox® reagent is carried out as before, and 4 aliquots are taken. One aliquot of the resultant suspension is mixed with 0.5 g of silica gel, although the amount of silica gel can be varied. After the bacteria are adsorbed onto the silica gel, the resultant mixture is used as the bioluminescent reagent in toxicity assays. Two of the other aliquots are used as controls (with and without silica gel), and the third is tested with toxicant alone.

Vibrio fischeri [2] = test: Toxicity assay with freeze-dried (stabilized) silica-based bacterial reagent vs standard Microtox reagent; format: cell-based; conditions: 10 ppm malathion; FIG. 5
Procedure: Stabilization of the bacteria used in the standard Microtox® test is performed by freeze-drying, and the effects of stabilization on such a bacteria-silica mixture were also investigated. A bacteria-silica mixture at a specific bacteria to silica ratio is subjected to freeze-drying at −30° C. for 6 hours under a vacuum, i.e. 0.1 hPa. Thereafter, the temperature is ramped up to +15° C. at increments of 10° C. per 15 minutes, retaining the vacuum, and then held at +15° C. for 8 hours.
Tests are then run to compare this freeze-dried mixture with the standard Microtox® freeze-dried reagent.

Vibrio fischeri [3] = test: Modified Microtox test, toxicant adsorbed onto silica gel then added to bacterial suspension; conditions: FIGS. 1 and 2, 30 minutes incubation
Procedure: Briefly the Microtox® tests used for this study first involve rehydration of freeze-dried luminescent Vibrio fischeri bacteria, i.e. the Microtox® reagent.
The reconstituted bacterial suspension is added to a series dilution of sample in 2% NaCl and incubated for 15° C. for 0.5–15 minutes. The dilutions can be modified to give any desired concentration of sample, and the volume of reagent used per test can also be varied.
After incubation, bioluminescence is measured in a suitable photometer, such as a Deltatox® photometer or that in the Microtox® Model 500 Analyzer.
Data is recorded in terms of decrease luminescence over time.
Generally, these tests are carried out in the presence of an adsorbent which is referred to as using a modified Microtox® test.
In one embodiment of the invention, the solid-phase adsorbent is added to samples of toxicants and left for 30 minutes at ambient temperature. The amount of solid adsorbent and the concentrations of toxicant used are varied.
During this time, rehydration of the freeze-dried Microtox® bacteria as an aqueous suspension is performed, and it is left to stabilize at 15° C. for 15 minutes. […]
At the same time, a control sample of bacteria is monitored for comparison. […]
After 30 minutes of incubation, the bioluminescence is measured using a photometer, and data is recorded in terms of decrease of luminescence over time.

Compound | toxic effect of aqueous toxicant on bioluminescence with bacteria immobilized by adsorption onto a solid surface, compared to free bacteria (Vibrio fischeri [1]) | % toxic effect with stabilized silica-based reagent compared to standard Microtox reagent (Vibrio fischeri [2]) | toxicity effect (effect on luminescence) when toxicant is adsorbed onto a solid surface, compared to aqueous toxicant (Vibrio fischeri [3])
CCOC(=O)CC(SP(=S)(OC)OC)C(=O)OCC (centres unmarked) [malathion] | enhanced | increased | increased
Oc1ccccc1 [phenol] | enhanced | – | increased
